In patent US20120071475A1, “UREA DERIVATIVES HAVING PI3K-INHIBITING ACTIVITY” (SHIONOGI & CO., LTD., priority 2009, published 2012):

Tests used:
CYP3A4 = target: T1, CYP3A4 (Homo sapiens, UniProt P08684); test: CYP3A4 fluorescence MBI test; assay type: in vitro ADME; settings: difference in IC50 with 0 or 30 minutes pre-reaction; CYP3A4 expressed in E. coli, substrate 7-BFC
T1 construct: host or cells: E. coli
Description: The CYP3A4 fluorescence MBI test is a test to examine the enhancement of CYP3A4 inhibition of a compound by a metabolic reaction. The test was performed using as an index, a reaction to produce a metabolite 7-hydroxytrifluoromethylcoumarin (HFC) which emits fluorescence, in which CYP3A4 expressed in E. coli was used as an enzyme and 7-benzyloxytrifluoromethylcoumarin (7-BFC) is debenzylated by CYP3A4 enzyme.
The reaction conditions are as follows: substrate: 5.6 μmol/L 7-BFC; pre-reaction time; 0 or 30 minutes; reaction time: 15 minutes; reaction temperature: 25° C. (room temperature); content of CYP3A4 (an enzyme expressed in E. coli): […] at the time of a pre-reaction and […] (when diluted 10 times) at the time of a reaction; the concentrations of a test drug: 0.625, 1.25, 2.5, 5, 10, and 20 μmol/L (6 points).
In a 96-well plate, an enzyme solution and a test drug solution were added as a pre-reaction solution into K-Pi buffer solution (pH 7.4) in the aforementioned ratio. A portion thereof was transferred to another 96-well plate to be diluted ten times with a substrate and a K-Pi buffer solution. A coenzyme, NADPH, was then added to start a reaction, which is the index (this is without a pre-reaction). After reacting for a predetermined time, 4:1 of acetonitrile: 0.5 mol/L Tris (trishydroxyaminomethane) was added to quench the reaction. To the remaining pre-reaction solution, NADPH was added to start a pre-reaction (this is with a pre-reaction). After pre-reacting for a predetermined time, a portion thereof was transferred to another plate to be diluted ten times with a substrate and K-Pi buffer solution, and thereby the index reaction is started. After reacting for a predetermined time, 4:1 of acetonitrile:0.5 mol/L Tris (trishydroxyaminomethane) was added to quench the reaction. For each plate in which the index reaction was carried out, the fluorescence value of a metabolite 7-HFC was measured with a fluorescent plate reader (Ex=420 nm, Em=535 nm).
The case wherein only DMSO (a solvent which dissolved a drug) was added to a reaction system was defined as a control (100%). When a test drug solution was added, the remaining activity (%) at each concentration was calculated, and then IC50 was calculated with a concentration and an inhibition ratio by an inverse estimation using a logistic model. When the difference in IC50 value is 5 μmol/L or more, the compound is shown as (+). When 3 μmol/L or less, the compound is shown as (−).

PI3Kγ = PI3Kγ (Homo sapiens, UniProt P48736); test: PI3Kγ inhibitory activity (PI3-kinase HTRF assay, inhibition ratio); assay type: biochemical; settings: 0.5 h, compound at 10 μmol/L; read-out: PI3Kg Inhibition Ratio % (10 μM)
Description: For each compound synthesized in the above Examples, PI3Kγ inhibitory activity was measured.
The PI3Kγ inhibitory activity of a compound was evaluated using PI3-kinase HTRF™ assay (Millipore) according to the following procedure:
To each well of a testing plate, 5 μL of a compound solution containing 10% DMSO (40 μmol/L as the concentration of the compound), 5 μL of a substrate solution (40 μmol/L phosphatidylinositol (4,5)-bisphosphate, 20 mmol/L MgCl2, 10 mmol/L DTT), and 5 μL of an enzyme solution (80 μg/mL PI-3 kinase y, 10 mmol/L MgCl2, 5 mmol/L DTT) were added, and then allowed to stand for 10 minutes.
Then, 5 μL of a reaction solution (40 μmol/L ATP, 10 mmol/L MgCl2, 5 mmol/L DTT) was added thereto. After reacting for 30 minutes at room temperature, 5 μL of a solution containing EDTA and biotinylated phosphatidylinositol (3,4,5)-triphosphate was added to quench the reaction.
5 μL of a detection reagent containing a europium-labeled anti-GST antibody, the GST-tagged PH domain, and allophycocyanin-labeled streptavidin was added thereto. After 18 hours, HTRF (excitation wavelength: 330 nm, measured wavelengths: 620 nm and 665 nm) was measured.
HTRF ratio was defined as the value obtained by dividing the amount of fluorescence obtained at the measured wavelength 665 nm by the amount of fluorescence obtained at 620 nm. The HTRF ratio in the absence of a compound was defined as 100% activity and the HTRF ratio in the absence of PI-3 kinase y was defined as 0% activity to calculate an inhibition ratio, which was defined as the PI3Kγ inhibitory activity of a compound at 10 μmol/L.

[1] = Metabolic stability test (pooled human liver microsome); assay type: in vitro ADME; settings: percentage of test compound remained after 30 minutes, pooled human liver microsome 0.5 mg protein/mL, 1 mmol/L NADPH, 37° C., compound 0.5 μM
Description: After a subject compound was reacted for a certain time using a pooled human liver microsome commercially available, a reacted sample and an unreacted sample are compared to calculate a survival ratio, and then the degree of metabolism in the liver was evaluated.
0.2 mL of a buffer solution (50 mmol/L of Tris-HCl in pH 7.4, 150 mmol/L of potassium chloride, and 10 mmol/L of magnesium chloride) containing a human liver microsome of 0.5 mg protein/mL was reacted in the presence of 1 mmol/L NADPH at 37° C. for 0 or 30 minutes (oxidative reaction). After reacting, 50 μL of the reaction solution was added to 100 μL of a solution of methanol/acetonitrile (1/1 (v/v)), mixed, and then centrifuged at 3000 rpm for 15 minutes. The test compound in the supernatant was quantitated with LC/MS/MS. The amount of the compound at a reaction time of 0 minute was defined as 100% and, based on that, the percentage of the test compound remained after reacting for 30 minutes was calculated.

T1 sequence (P08684 whole entry): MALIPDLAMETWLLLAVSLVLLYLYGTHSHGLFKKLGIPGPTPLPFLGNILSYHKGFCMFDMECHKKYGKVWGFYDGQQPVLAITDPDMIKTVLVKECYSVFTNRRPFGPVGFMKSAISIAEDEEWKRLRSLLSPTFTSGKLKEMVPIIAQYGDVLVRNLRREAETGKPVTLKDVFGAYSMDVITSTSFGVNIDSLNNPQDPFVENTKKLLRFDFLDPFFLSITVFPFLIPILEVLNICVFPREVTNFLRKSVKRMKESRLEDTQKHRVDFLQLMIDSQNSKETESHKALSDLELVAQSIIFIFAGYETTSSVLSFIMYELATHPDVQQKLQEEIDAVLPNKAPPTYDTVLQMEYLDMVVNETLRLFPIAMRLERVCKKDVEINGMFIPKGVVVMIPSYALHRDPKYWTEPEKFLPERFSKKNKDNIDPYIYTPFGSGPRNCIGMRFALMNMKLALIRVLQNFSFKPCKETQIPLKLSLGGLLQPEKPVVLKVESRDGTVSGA
Chain of PI3Kγ (P48736 whole entry, species assumed): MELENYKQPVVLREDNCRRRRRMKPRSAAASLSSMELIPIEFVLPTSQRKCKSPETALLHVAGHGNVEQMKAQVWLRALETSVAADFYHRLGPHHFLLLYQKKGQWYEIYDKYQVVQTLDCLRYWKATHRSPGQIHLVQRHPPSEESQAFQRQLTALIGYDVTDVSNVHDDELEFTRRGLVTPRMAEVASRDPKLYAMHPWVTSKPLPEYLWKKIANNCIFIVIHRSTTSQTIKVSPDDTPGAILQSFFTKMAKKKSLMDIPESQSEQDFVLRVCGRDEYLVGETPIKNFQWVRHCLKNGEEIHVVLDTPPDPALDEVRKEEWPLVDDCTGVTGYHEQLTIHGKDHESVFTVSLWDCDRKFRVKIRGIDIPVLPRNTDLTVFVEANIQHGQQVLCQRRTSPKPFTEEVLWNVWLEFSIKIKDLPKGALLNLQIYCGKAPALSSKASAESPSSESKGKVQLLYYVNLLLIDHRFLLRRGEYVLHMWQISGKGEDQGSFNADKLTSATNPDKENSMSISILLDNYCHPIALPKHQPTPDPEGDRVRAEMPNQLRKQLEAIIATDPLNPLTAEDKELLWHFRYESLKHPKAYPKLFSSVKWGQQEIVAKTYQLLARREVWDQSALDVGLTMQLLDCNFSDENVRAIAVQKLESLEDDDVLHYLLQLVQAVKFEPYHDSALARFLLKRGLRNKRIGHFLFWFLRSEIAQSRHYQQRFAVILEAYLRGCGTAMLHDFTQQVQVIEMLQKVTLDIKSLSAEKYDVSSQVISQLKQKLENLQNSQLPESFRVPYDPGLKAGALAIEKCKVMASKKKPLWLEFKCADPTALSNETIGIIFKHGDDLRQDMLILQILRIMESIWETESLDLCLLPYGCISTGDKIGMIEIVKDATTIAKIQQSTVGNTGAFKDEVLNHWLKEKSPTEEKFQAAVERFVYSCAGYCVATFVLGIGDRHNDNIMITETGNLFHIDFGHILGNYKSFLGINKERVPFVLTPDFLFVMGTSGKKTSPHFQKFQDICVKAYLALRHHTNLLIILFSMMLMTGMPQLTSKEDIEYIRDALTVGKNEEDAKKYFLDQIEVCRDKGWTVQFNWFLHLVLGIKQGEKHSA

Compound: COc1cc(N2CCc3nc(NC(=O)Nc4ccccc4C(=O)NC4(C#N)CC4)sc3C2)nc(OC)n1 [Compound I-20]
- MBI (CYP3A4): (−) (When 3 μmol/L or less, the compound is shown as (−))
- inhibition at 10 µM (PI3Kγ): ≥ 95%

Compound: COc1cc(N2CCc3nc(NC(=O)Nc4cccnc4C(=O)NC(C)(C)C)sc3C2)nc(OC)n1 [Compound I-22]
- MBI (CYP3A4): (−) (When 3 μmol/L or less, the compound is shown as (−))
- inhibition at 10 µM (PI3Kγ): ≥ 95%

Compound: COc1cc(N2CCc3nc(NC(=O)Nc4cnccc4C(=O)NC(C)(C)C)sc3C2)nc(OC)n1 [Compound I-23]
- MBI (CYP3A4): (−) (When 3 μmol/L or less, the compound is shown as (−))
- inhibition at 10 µM (PI3Kγ): ≥ 95%

Compound: COc1cc(N2CCc3nc(NC(=O)Nc4cccnc4C(=O)N(C)C(C)C)sc3C2)nc(OC)n1 [Compound I-24]
- MBI (CYP3A4): (−) (When 3 μmol/L or less, the compound is shown as (−))
- inhibition at 10 µM (PI3Kγ): ≥ 95%

Compound: COc1cc(N2CCc3nc(NC(=O)Nc4ccccc4C(F)(F)F)sc3C2)nc(OC)n1 [Compound I-33]
- MBI (CYP3A4): (−) (When 3 μmol/L or less, the compound is shown as (−))

Compound: COc1cc(N2CCc3nc(NC(=O)Nc4ccccc4OC(F)(F)F)sc3C2)nc(OC)n1 [Compound I-34]
- MBI (CYP3A4): (−) (When 3 μmol/L or less, the compound is shown as (−))

Compound: COc1cc(N2CCc3nc(NC(=O)Nc4ccccc4C(N)=O)sc3C2)nc(OC)n1 [Compound I-35]
- hLMS_ox(at 0.5 μM) % [1]: 101%
- MBI (CYP3A4): (−) (When 3 μmol/L or less, the compound is shown as (−))
- inhibition at 10 µM (PI3Kγ): ≥ 95%

Compound: COc1cc(N2CCc3nc(NC(=O)Nc4ccccc4OCc4ccccc4)sc3C2)nc(OC)n1 [Compound I-39]
- MBI (CYP3A4): (−) (When 3 μmol/L or less, the compound is shown as (−))

Compound: COc1cc(N2CCc3nc(NC(=O)Nc4ccccc4C(C)(C)C)sc3C2)nc(OC)n1 [Compound I-40]
- MBI (CYP3A4): (−) (When 3 μmol/L or less, the compound is shown as (−))

Compound: COc1cncc(N2CCc3nc(NC(=O)Nc4ccccc4C(=O)NC(C)C)sc3C2)c1 [Compound I-49]
- MBI (CYP3A4): (−) (When 3 μmol/L or less, the compound is shown as (−))

Compound: CNC(=O)c1ccccc1NC(=O)Nc1nc2c(s1)CN(c1cc(OC)nc(OC)n1)CC2 [Compound I-56]
- hLMS_ox(at 0.5 μM) % [1]: 95.5%
- MBI (CYP3A4): (−) (When 3 μmol/L or less, the compound is shown as (−))

Compound: COc1cc(N2CCc3nc(NC(=O)Nc4ccccc4C(=O)NCC(C)C)sc3C2)nc(OC)n1 [Compound I-58]
- MBI (CYP3A4): (−) (When 3 μmol/L or less, the compound is shown as (−))

Compound: COc1cc(N2CCc3nc(NC(=O)Nc4ccccc4C(=O)NCCC(C)C)sc3C2)nc(OC)n1 [Compound I-59]
- MBI (CYP3A4): (−) (When 3 μmol/L or less, the compound is shown as (−))

Compound: COc1cc(OC)nc(N2CCc3nc(NC(=O)Nc4ccccc4C(=O)NC(C)C)sc3C2)c1 [Compound I-62]
- MBI (CYP3A4): (−) (When 3 μmol/L or less, the compound is shown as (−))

Compound: COc1cc(N2CCc3nc(NC(=O)Nc4ccccc4C(=O)CC(C)C)sc3C2)nc(OC)n1 [Compound I-65]
- MBI (CYP3A4): (−) (When 3 μmol/L or less, the compound is shown as (−))
- inhibition at 10 µM (PI3Kγ): ≥ 95%

Compound: COc1cc(N2CCc3nc(NC(=O)Nc4cc(F)ccc4C(=O)NC(C)C)sc3C2)nc(OC)n1 [Compound I-74]
- hLMS_ox(at 0.5 μM) % [1]: 83.3%
- MBI (CYP3A4): (−) (When 3 μmol/L or less, the compound is shown as (−))

Compound: COc1cc(N2CCc3nc(NC(=O)Nc4cccc(F)c4C(=O)NC(C)C)sc3C2)nc(OC)n1 [Compound I-75]
- MBI (CYP3A4): (−) (When 3 μmol/L or less, the compound is shown as (−))

Compound: COc1cncc(C2(F)CCc3nc(NC(=O)Nc4ccccc4C(=O)NC(C)C)sc3C2)c1 (stereo not drawn) [Compound I-79]
- MBI (CYP3A4): (−) (When 3 μmol/L or less, the compound is shown as (−))

Compound: CC(C)NC(=O)c1ccccc1NC(=O)Nc1nc2c(s1)CN(c1ccnc(Cl)n1)CC2 [Compound I-98]
- MBI (CYP3A4): (−) (When 3 μmol/L or less, the compound is shown as (−))
- inhibition at 10 µM (PI3Kγ): ≥ 95%

Compound: Cc1cc(N2CCc3nc(NC(=O)Nc4ccccc4C(=O)NC(C)C)sc3C2)nc(Cl)n1 [Compound I-163]
- hLMS_ox(at 0.5 μM) % [1]: 90.5%
- MBI (CYP3A4): (−) (When 3 μmol/L or less, the compound is shown as (−))
- inhibition at 10 µM (PI3Kγ): 83%

Compound: Cc1cc(N2CCc3nc(NC(=O)Nc4ccccc4C(=O)N[C@@H](C)CO)sc3C2)nc(Cl)n1 [Compound I-168]
- hLMS_ox(at 0.5 μM) % [1]: 104%
- MBI (CYP3A4): (−) (When 3 μmol/L or less, the compound is shown as (−))
- inhibition at 10 µM (PI3Kγ): 89%

Compound: Cc1cc(N2CCc3nc(NC(=O)Nc4ccccc4C(=O)N[C@@H](C)CO)sc3C2)nc(C#N)n1 [Compound I-180]
- hLMS_ox(at 0.5 μM) % [1]: 92.6%
- MBI (CYP3A4): (−) (When 3 μmol/L or less, the compound is shown as (−))
- inhibition at 10 µM (PI3Kγ): 89%

Compound: Cc1cc(N2CCc3nc(NC(=O)Nc4ccccc4C(=O)N[C@H](C)CO)sc3C2)nc(C#N)n1 [Compound I-185]
- hLMS_ox(at 0.5 μM) % [1]: 87.6%
- MBI (CYP3A4): (−) (When 3 μmol/L or less, the compound is shown as (−))
- inhibition at 10 µM (PI3Kγ): ≥ 95%

Compound: Cc1cc(N2CCc3nc(NC(=O)Nc4cn(C)nc4C(=O)NC(C)C)sc3C2)nc(C#N)n1 [Compound I-186]
- MBI (CYP3A4): (−) (When 3 μmol/L or less, the compound is shown as (−))
- inhibition at 10 µM (PI3Kγ): 91%

Compound: CS(=O)(=O)c1cccc(N2CCc3nc(NC(=O)Nc4ccccc4C(=O)NCC#N)sc3C2)c1 [Compound I-200]
- MBI (CYP3A4): (−) (When 3 μmol/L or less, the compound is shown as (−))
- inhibition at 10 µM (PI3Kγ): ≥ 95%
